61 compounds from ChEMBL document CHEMBL6134859, “Unlocking the antiviral arsenal: Structure-guided optimization of small-molecule inhibitors against RSV and hCoV-229E” (Eur J Med Chem, 2025) can be followed below.

SMILES strings stand for the structures. In brackets after ≈: the same amount, converted by molar mass. Where only a bound is given, the exact number is not on record here.

A short description of this data set: Kinetic solubility of the compound in 1%DMSO/PBS measured after 5 mins. The data set is classed as physicochemical. The following applies: read-out: Kinetic_solubility.
In the case of `COc1ccc(C(C)=O)cc1COc1ncnc2c(-c3ccncc3)cccc12`, the solubility kinetic at 5 min turned out to be 32 µM (≈ 12.3 µg/mL).
Regarding `COc1ccc(C(C)=O)cc1COc1ncnc2cccc(Cl)c12`, the solubility kinetic at 5 min came out at 54 µM (≈ 18.5 µg/mL).
As for `COc1ccc(C(C)=O)cc1CNc1ncnc2c(Cl)cc(Cl)cc12`, the figure is more than 100 µM; as for `COc1ccc(C(C)=O)cc1COc1ncnc2c(C)cccc12`, 57 µM (≈ 18.4 µg/mL); as for `Clc1cc(Cl)c2ncnc(OCc3ccc(Br)cc3)c2c1`, 12 µM (≈ 4.61 µg/mL).
The same measure for `COC(=O)c1ccccc1COc1ncnc2c(Cl)cc(Cl)cc12`: 22 µM (≈ 7.99 µg/mL); for `CCc1ccc(OC)c(COc2ncnc3c(Cl)cc(Cl)cc23)c1`: 34 µM (≈ 12.4 µg/mL); for `COc1ccc(C(C)=O)cc1C(=O)Nc1ncnc2c(Cl)cc(Cl)cc12`: more than 100 µM.
The same measure for `COc1ccc(C(C)=O)cc1COc1ncnc2c(F)cccc12`: more than 100 µM; for `COc1ccc(C(C)=O)cc1CSc1ncnc2c(Cl)cc(Cl)cc12`: 17 µM (≈ 6.69 µg/mL).
As to `Clc1cc(Cl)c2ncnc(OCc3cccc4c3OCO4)c2c1`, the solubility kinetic at 5 min stood at 21 µM (≈ 7.33 µg/mL).
The same measure for `O=C(O)c1cccc(COc2ncnc3c(Cl)cc(Cl)cc23)c1`: more than 100 µM.
As for `COc1ccc(C(C)=O)cc1COc1ncnc2c(Cl)ccc(Cl)c12`, the figure is 37 µM (≈ 14 µg/mL); as for `COc1cccc(COc2ncnc3c(Cl)cc(Cl)cc23)c1`, 22 µM (≈ 7.37 µg/mL); as for `COc1ccc(C(C)=O)cc1COc1ncnc2c(S(C)(=O)=O)cccc12`, more than 100 µM.
The same measure for `COc1ccc(C(C)=O)cc1COc1ncnc2c(Br)cccc12`: 41 µM (≈ 15.9 µg/mL); for `COc1ccc(C(C)=O)cc1COc1ncnc2c(OCc3cc(C(C)=O)ccc3OC)cccc12`: 53 µM (≈ 25.8 µg/mL); for `Clc1cc(Cl)c2ncnc(OCc3ccccc3-c3ccccc3)c2c1`: 16 µM (≈ 6.1 µg/mL).
For the compound `COc1ccc(C(C)=O)cc1COc1ncnc2ccc(Cl)cc12`, the solubility kinetic at 5 min turned out to be 60 µM (≈ 20.6 µg/mL).
The same measure for `COc1ccc(C(C)=O)cc1COc1ncnc2c(C#N)cccc12`: more than 100 µM; for `Clc1cc(Cl)c2ncnc(OCc3ccccc3Br)c2c1`: 20 µM (≈ 7.68 µg/mL); for `COC(=O)c1cccc2c(OCc3cc(C(C)=O)ccc3OC)ncnc12`: more than 100 µM.
In the case of `COc1ccc(C(C)=O)cc1COc1ncnc2cc(Cl)ccc12`, the solubility kinetic at 5 min came out at 26 µM (≈ 8.91 µg/mL).
In the case of `Clc1cc(Cl)c2ncnc(OCc3ccccc3-c3cccnc3)c2c1`, the solubility kinetic at 5 min was 60 µM (≈ 22.9 µg/mL).
For `O=C(O)c1ccccc1COc1ncnc2c(Cl)cc(Cl)cc12`, the solubility kinetic at 5 min is more than 100 µM.
On to `COc1ccc(C(C)=O)cc1COc1ncnc2c(-c3ccccc3)cccc12`, for which the solubility kinetic at 5 min was determined as 35 µM (≈ 13.5 µg/mL).
For the compound `CC(=O)c1cccc(COc2ncnc3c(Cl)cc(Cl)cc23)c1`, the solubility kinetic at 5 min was found to be 46 µM (≈ 16 µg/mL).
As for `COc1ccc(C(C)=O)cc1COc1ncnc2c(Cl)cc(C)cc12`, the figure is 66 µM (≈ 23.5 µg/mL).
For the compound `O=C(O)c1ccc(COc2ncnc3c(Cl)cc(Cl)cc23)cc1`, the solubility kinetic at 5 min is more than 100 µM.
The same measure for `COc1ccc(C(C)=O)cc1COc1ncnc2c(Cl)cc(Cl)cc12`: 62 µM (≈ 23.4 µg/mL); for `COCCOc1ccccc1COc1ncnc2c(Cl)cc(Cl)cc12`: 42 µM (≈ 15.9 µg/mL); for `COc1ccc(C(C)=O)cc1COc1ncnc2c(C)cc(C)cc12`: more than 100 µM.
The same measure for `Cc1ccc(COc2ncnc3c(Cl)cc(Cl)cc23)cc1`: 12 µM (≈ 3.83 µg/mL); for `COc1ccc(C(C)=O)cc1COc1ncnc2c(C)cc(Cl)cc12`: 50 µM (≈ 17.8 µg/mL); for `Clc1ccc(COc2ncnc3c(Cl)cc(Cl)cc23)cc1`: 18 µM (≈ 6.11 µg/mL).
Turning to `CCc1ccccc1COc1ncnc2c(Cl)cc(Cl)cc12`, the solubility kinetic at 5 min was found to be 28 µM (≈ 9.33 µg/mL).
The same measure for `COc1ccc(C(C)=O)cc1COc1ncnc2c(C3CC3)cccc12`: 27 µM (≈ 9.41 µg/mL).
As for `COc1cccc(OC)c1COc1ncnc2c(Cl)cc(Cl)cc12`, the figure is 21 µM (≈ 7.67 µg/mL); as for `COc1cc(COc2ncnc3c(Cl)cc(Cl)cc23)cc(C(C)=O)c1`, 21 µM (≈ 7.92 µg/mL).
As for `COc1ccc(C(C)=O)cc1COc1ncnc2c(N3CCOCC3)cccc12`, the figure is more than 100 µM; as for `COc1ccc(COc2ncnc3c(Cl)cc(Cl)cc23)cc1C(C)=O`, 39 µM (≈ 14.7 µg/mL); as for `COc1ccc(C(C)=O)cc1COc1ncnc2cc(Cl)cc(Cl)c12`, 41 µM (≈ 15.5 µg/mL).
Consider `COc1ccc(C(C)=O)cc1COc1ncnc2c(O)cccc12`, for which the solubility kinetic at 5 min worked out at 55 µM (≈ 17.8 µg/mL).
Turning to `Fc1ccc(COc2ncnc3c(Cl)cc(Cl)cc23)cc1`, the solubility kinetic at 5 min came to 22 µM (≈ 7.11 µg/mL).
`COc1ccc(C(C)=O)cc1COc1ncnc2c(C(F)(F)F)cccc12`: the solubility kinetic at 5 min is 33 µM (≈ 12.4 µg/mL).
As for `COc1cccc(C(C)=O)c1COc1ncnc2c(Cl)cc(Cl)cc12`, the solubility kinetic at 5 min was 44 µM (≈ 16.6 µg/mL).
For the compound `COc1ccc(COc2ncnc3c(Cl)cc(Cl)cc23)cc1`, the solubility kinetic at 5 min was 44 µM (≈ 14.7 µg/mL).
As for `COc1cc(C(C)=O)ccc1COc1ncnc2c(Cl)cc(Cl)cc12`, the figure is 26 µM (≈ 9.81 µg/mL).
The same measure for `N#Cc1ccc(COc2ncnc3c(Cl)cc(Cl)cc23)cc1`: 25 µM (≈ 8.25 µg/mL); for `CC(=O)c1ccc(-c2cccnc2)c(COc2ncnc3c(Cl)cc(Cl)cc23)c1`: more than 100 µM; for `COc1ccc(C(C)=O)cc1COc1ncnc2c(Cl)cccc12`: 58 µM (≈ 19.9 µg/mL).
The same measure for `COc1ccc(C(C)=O)cc1COc1ncnc2c(OC)cccc12`: more than 100 µM; for `Fc1ccccc1COc1ncnc2c(Cl)cc(Cl)cc12`: 26 µM (≈ 8.4 µg/mL).
For the compound `Clc1cc(Cl)c2ncnc(OCc3ccccc3)c2c1`, the solubility kinetic at 5 min is 25 µM (≈ 7.63 µg/mL).
As for `COC(=O)c1ccc(COc2ncnc3c(Cl)cc(Cl)cc23)cc1`, the solubility kinetic at 5 min was 25 µM (≈ 9.08 µg/mL).
As for `COc1c(COc2ncnc3c(Cl)cc(Cl)cc23)cccc1C(C)=O`, the figure is 57 µM (≈ 21.5 µg/mL); as for `COc1ccccc1COc1ncnc2c(Cl)cc(Cl)cc12`, 32 µM (≈ 10.7 µg/mL); as for `CCc1ccc(C(C)=O)cc1COc1ncnc2c(Cl)cc(Cl)cc12`, 21 µM (≈ 7.88 µg/mL).
As to `FC(F)(F)c1ccc(COc2ncnc3c(Cl)cc(Cl)cc23)cc1`, the solubility kinetic at 5 min was 18 µM (≈ 6.72 µg/mL).
As for `COc1ccccc1CSc1ncnc2c(Cl)cc(Cl)cc12`, the figure is 24 µM (≈ 8.43 µg/mL).
On to `CC(=O)c1ccccc1COc1ncnc2c(Cl)cc(Cl)cc12`, for which the solubility kinetic at 5 min came out at 43 µM (≈ 14.9 µg/mL).
